Results as given in PubChem BioAssay (NCI).
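Step 1: Grow cells in 96-well plates. Step 2: Expose to compound for 48 hours at 5 concentrations. Step 3: Interpolate endpoints linearly; if unreached, use highest concentration. TGI: concentration producing complete growth inhibition.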

Experiments:
Assay in all cases: NCI-60 cell line screen, 48 h
[1] = system: NCI-H23 lung
[2] = system: CAKI-1 renal
[3] = system: SK-MEL-28 melanoma
[4] = system: ACHN renal
[5] = system: HOP-62 NSCLC
[6] = system: HCC-2998 colon
[7] = system: A549 NSCLC
[8] = system: T-47D breast
[9] = system: COLO 205 colon
[10] = system: UACC-257 melanoma
[11] = system: M14 melanoma
[12] = system: MDA-MB-435
[13] = system: NCI/ADR-RES ovarian
[14] = system: PC-3 prostate
[15] = system: OVCAR-4 ovarian
[16] = system: LOX IMVI melanoma
[17] = system: U251 CNS
[18] = system: HCT-116 colon
[19] = system: MCF7 breast
[20] = system: SK-MEL-2 melanoma
[21] = system: CCRF-CEM leukemia
[22] = system: RXF 393 renal
[23] = system: SW-620 colon
[24] = system: NCI-H226 lung
[25] = system: SF-268 CNS
[26] = system: NCI-H460 lung
[27] = system: SK-MEL-5 melanoma
[28] = system: SNB-19 CNS
[29] = system: SF-295 CNS
[30] = system: MDA-MB-231 breast
[31] = system: RPMI-8226 leukemia
[32] = system: 786-0 renal
[33] = system: SN12C renal
[34] = system: SF-539 CNS
[35] = system: SNB-75 CNS
[36] = system: NCI-H522 lung
[37] = system: BT-549 breast
[38] = system: OVCAR-3 ovarian
[39] = system: UO-31 renal
[40] = system: HCT-15 colon
[41] = system: TK-10 renal
[42] = system: EKVX NSCLC
[43] = system: A498 renal
[44] = system: MDA-N
[45] = system: SK-OV-3 ovarian
[46] = system: OVCAR-5 ovarian
[47] = system: HOP-92 NSCLC
[48] = system: HT29 colon
[49] = system: K-562 leukemia
[50] = system: SR leukemia
[51] = system: DU-145 prostate
[52] = system: MOLT-4 leukemia
[53] = system: HS 578T breast
[54] = system: KM12 colon
[55] = system: IGROV1 ovarian
[56] = system: MALME-3M melanoma
[57] = system: HL-60(TB) leukemia
[58] = system: OVCAR-8 ovarian

Structure (SMILES): Cc1cc2[nH]c3c(C#N)c(-c4ccccc4)c(N=Nc4ccc(F)cc4)c(=O)n3c2cc1C
- TGI [1]: > 100 µM
- TGI [2]: > 100 µM
- TGI [3]: > 100 µM
- TGI [4]: > 100 µM
- TGI [5]: > 100 µM
- TGI [6]: > 100 µM
- TGI [7]: > 100 µM
- TGI [8]: > 100 µM
- TGI [9]: > 100 µM
- TGI [10]: > 100 µM
- TGI [11]: > 100 µM
- TGI [12]: > 100 µM
- TGI [13]: > 100 µM
- TGI [14]: > 100 µM
- TGI [15]: > 100 µM
- TGI [16]: > 100 µM
- TGI [17]: > 100 µM
- TGI [18]: > 100 µM
- TGI [19]: > 100 µM
- TGI [20]: > 100 µM
- TGI [21]: > 100 µM
- TGI [22]: > 100 µM
- TGI [23]: > 100 µM
- TGI [24]: > 100 µM
- TGI [25]: > 100 µM
- TGI [26]: > 100 µM
- TGI [27]: > 100 µM
- TGI [28]: > 100 µM
- TGI [29]: > 100 µM
- TGI [30]: > 100 µM
- TGI [31]: > 100 µM
- TGI [32]: > 100 µM
- TGI [33]: > 100 µM
- TGI [34]: > 100 µM
- TGI [35]: > 100 µM
- TGI [36]: > 100 µM
- TGI [37]: > 100 µM
- TGI [38]: 39.8 µM
- TGI [39]: > 100 µM
- TGI [40]: > 100 µM
- TGI [41]: > 100 µM
- TGI [42]: > 100 µM
- TGI [43]: > 100 µM
- TGI [44]: > 100 µM
- TGI [45]: > 100 µM
- TGI [46]: > 100 µM

Structure (SMILES): Cc1ccc(S(=O)(=O)NC(=O)NC(Cc2ccc(O)cc2)C(=O)O)cc1 (stereo not given)
- TGI [1]: > 100 µM
- TGI [47]: > 100 µM
- TGI [3]: > 100 µM
- TGI [5]: > 100 µM
- TGI [7]: > 100 µM
- TGI [48]: > 100 µM
- TGI [8]: > 100 µM
- TGI [9]: > 100 µM
- TGI [10]: > 100 µM
- TGI [11]: > 100 µM
- TGI [13]: > 100 µM
- TGI [49]: > 100 µM
- TGI [14]: > 100 µM
- TGI [15]: > 100 µM
- TGI [16]: > 100 µM
- TGI [17]: > 100 µM
- TGI [18]: > 100 µM
- TGI [50]: > 100 µM
- TGI [20]: > 100 µM
- TGI [21]: > 100 µM
- TGI [22]: > 100 µM
- TGI [23]: > 100 µM
- TGI [25]: > 100 µM
- TGI [26]: > 100 µM
- TGI [27]: > 100 µM
- TGI [51]: > 100 µM
- TGI [52]: > 100 µM
- TGI [53]: > 100 µM
- TGI [28]: > 100 µM
- TGI [29]: > 100 µM
- TGI [54]: > 100 µM
- TGI [30]: > 100 µM
- TGI [55]: > 100 µM
- TGI [56]: > 100 µM
- TGI [57]: > 100 µM
- TGI [31]: > 100 µM
- TGI [32]: > 100 µM
- TGI [33]: > 100 µM
- TGI [34]: > 100 µM
- TGI [58]: > 100 µM
- TGI [35]: > 100 µM
- TGI [36]: > 100 µM
- TGI [37]: > 100 µM
- TGI [39]: > 100 µM
- TGI [40]: > 100 µM
- TGI [41]: > 100 µM
- TGI [44]: > 100 µM
- TGI [45]: > 100 µM
- TGI [46]: > 100 µM
